Format in all cases: biochemical
Experiment [1] relates to tyrosinase. Put plainly: Tyrosinase inhibition, tyrosinase inhibitor screening kit (Sigma Aldrich MAK 257 Kit). As for the experimental part: A study of tyrosinase inhibition is conducted (e.g., Sigma Aldrich MAK 257 Kit) to investigate the efficacy of an exemplary composition of the present invention (0.312% lactic acid; 0.156% mandelic acid; and 0.078% pyruvic acid) and individual short chain fatty acids at the same concentrations.
A study of tyrosinase inhibition is conducted (e.g., Sigma Aldrich MAK 257 Kit) to investigate the efficacy of an exemplary composition of the present invention (0.312% mandelic acid and 0.156% pyruvic acid) and individual short chain fatty acids at the same concentrations.
The anti-tyrosinase activity of an exemplary composition of the present invention was compared to the anti-tyrosinase activity of individual short chain fatty acids. Assays were performed using a tyrosinase inhibitor screening kit from Sigma Aldrich (MAK 257 Kit); and following the manufacturer's protocol. The results of these experiments are described in Table 1 (below).
The anti-tyrosinase activity of an exemplary composition of the present invention was compared to the anti-tyrosinase activity of individual short chain fatty acids. Assays were performed using a tyrosinase inhibitor screening kit from Sigma Aldrich (MAK 257 Kit); and following the manufacturer's protocol. The results of these experiments are described in Table 4 (below).
Peels were diluted 1000× in buffer to prepare 0.1% working stock. The working stock was serially diluted 2× to test the peels at five doses (0.1 wt. %, 0.05 wt. %, 0.025 wt. %, 0.0125 wt. % and 0.00625 wt. %). The pH of all test samples and dilutions was measured before and after tyrosinase assay to exclude any effect of acid on the enzyme activity. The assay was performed using a commercial kit following manufacturer's protocol (e.g., MAK 257 Kit from Sigma Aldrich). LMP peels containing various concentrations of pyruvic acid at pH 2.5 (“R1 Peels”); LMP peels which were identically formulated to the R1 Peels, but with pH buffered to 3.6 (“R2 Peels”); and LMP′ peels which were identically formulated to the R2 Peels, other than the replacement of pyruvic acid with sodium pyruvate (“R3 Peels”), were all evaluated.

Experiment [2] has as its system collagenase. Kind of experiment: Collagenase inhibition, collagenase inhibitor screening kit (Sigma Aldrich MAK 293 Kit). The protocol: A study of collagenase inhibition is conducted (e.g., Sigma Aldrich MAK 293 Kit) to investigate the was conducted to investigate the efficacy of an exemplary composition of the present invention (1.25% lactic acid; 0.625% mandelic acid; and 0.312% pyruvic acid) and individual short chain fatty acids, at the same concentrations.
A study of collagenase inhibition is conducted (e.g., Sigma Aldrich MAK 293 Kit) to investigate the was conducted to investigate the efficacy of an exemplary composition of the present invention (1.25% mandelic acid and 0.625% pyruvic acid) and individual short chain fatty acids, at the same concentrations.
The anti-collagenase activity of an exemplary composition of the present invention was compared to the anti-collagenase activity of individual short chain fatty acids. Assays were performed using a collagenase inhibitor screening kit from Sigma Aldrich (MAK 293 Kit); and following the manufacturer's protocol. The results of these experiments are described in Table 2 (below).
The anti-collagenase activity of an exemplary composition of the present invention was compared to the anti-collagenase activity of individual short chain fatty acids. Assays were performed using a collagenase inhibitor screening kit from Sigma Aldrich (MAK 293 Kit); and following the manufacturer's protocol. The results of these experiments are described in Table 5 (below).

For experiment [3], the target named is T1, elastase (Homo sapiens, UniProt P08246).
T1 construct: purchased Sigma Aldrich MAK 213 Kit
T1 sequence (P08246 30-267): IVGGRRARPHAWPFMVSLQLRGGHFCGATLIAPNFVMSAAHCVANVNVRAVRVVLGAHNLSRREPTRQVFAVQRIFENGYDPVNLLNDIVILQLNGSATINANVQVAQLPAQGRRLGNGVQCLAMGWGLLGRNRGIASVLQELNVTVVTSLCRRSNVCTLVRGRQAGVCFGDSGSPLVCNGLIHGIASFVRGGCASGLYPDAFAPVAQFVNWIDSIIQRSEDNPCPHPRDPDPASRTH
Kind of experiment: Elastase inhibition, elastase inhibitor screening kit (Sigma Aldrich MAK 213 Kit). Particulars: Table 3, Example 7. As for the experimental part: The anti-elastase activity of an exemplary composition of the present invention was compared to the anti-elastase activity of individual short chain fatty acids. Assays were performed using an elastase inhibitor screening kit from Sigma Aldrich (MAK 213 Kit); and following the manufacturer's protocol. The results of these experiments are described in Table 3 (below).

The structures appear in SMILES notation.

Take `CC(O)C(=O)O` (centres unmarked) [Lactic Acid (L), lactic acid]: the “% Tyrosinase Inhibition” value in experiment [1] (Table 1, Example 5, 0.312 wt. %) is 52.72%; in experiment [1] (Table 4, Example 8, 0.312 wt. %), 1.23%; in experiment [1] (Table A, Example 1, 0.312 wt. %) it was 2.23%. Also, the “% Collagenase Inhibition” value was found to be 40.32% in experiment [2] (Table 2, Example 6, 1.25 wt. %); 12.71% in experiment [2] (Table 5, Example 9, 1.25 wt. %); 12.71% in experiment [2] (Table B, Example 2, 1.25 wt. %). Also, the “% Elastase Inhibition” value in experiment [3] (0.625 wt. %) came out at 44.89%.

Turning to `O=C(O)C(O)c1ccccc1` (centres unmarked) [Mandelic Acid (M), mandelic acid], the “% Tyrosinase Inhibition” value was 0.06% in experiment [1] (Table 4, Example 8, 0.156 wt. %); 0.06% in experiment [1] (Table A, Example 1, 0.156 wt. %); 1.17% in experiment [1] (Table C, Example 3, 0.312 wt. %). The “% Collagenase Inhibition” value in experiment [2] (Table 5, Example 9, 0.625 wt. %) amounted to 8.57%; in experiment [2] (Table B, Example 2, 0.625 wt. %) it was 8.57%; in experiment [2] (Table D, Example 4, 1.25 wt. %), 11.26%.

`CC(=O)C(=O)O` [Pyruvic Acid (P), pyruvic acid]: the “% Tyrosinase Inhibition” value in experiment [1] (Table 1, Example 5, 0.078 wt. %) came out at 29.29%; in experiment [1] (Table A, Example 1, 0.078 wt. %), 0.37%; in experiment [1] (Table C, Example 3, 0.156 wt. %) it was 26.62%. Besides, the “% Collagenase Inhibition” value is 8.79% in experiment [2] (Table 2, Example 6, 0.312 wt. %); 6.70% in experiment [2] (Table B, Example 2, 0.312 wt. %); 9.58% in experiment [2] (Table D, Example 4, 0.625 wt. %). In experiment [3] (0.156 wt. %), the “% Elastase Inhibition” value stood at 20.21%.

Values taken from US20210275418A1, “Personal Care Compositions” (Colgate-Palmolive Company, priority 2020, published 2021).
